Reference: patent US11415513B2, “Method for determining the degree of sensitivity of a strain of fungus to an antifungal agent” (UNIVERSITE GRENOBLE ALPES, priority 2015, dated 2022)
≈ marks a conversion by molar mass, not a printed value. Like-named read-outs stand apart in the source and are kept apart here.

Columns and labels:
[1] = test system: strain SC5314 of C. albicans; experiment: Sensitivity test by HCA microscopy (chitin level, Calcofluor White; cell count); format: cell-based, Candida albicans; details: 6.5 h at 30° C., SC medium; for decrease of the number of cells / increase of the chitin level in the wall of the cells: vs cells in the absence of antifungal agent, concentration gradient of Table 1
Description: (§1) The strains of Candida were incubated beforehand at 30° C. overnight in a yeast extract medium—peptone dextrose (YPD) (1% bacto peptone, 0.5% yeast extract, 2% glucose, 1.5% agar).
(§2) Yeast colonies were then removed from YPD medium plates and suspended in a 0.9% NaCl saline solution, in which the cell concentration was estimated by optical microscopy using Kova counting slides.
(§3) A dilution was performed to obtain 15 ml of an inoculum at 3×10^6 CFU/ml, in a synthetic complete (SC) medium at pH 7 (2% glucose, 0.5% ammonium sulfate, 0.17% nitrogen-containing yeast base, 0.2% synthetic complete mixture, and 10% HEPES 1.5M pH 7.2) for C. albicans, C. parapsilosis, C. tropicalis and C. krusei, and in a solution of RPMI 1640 pH 7.3 (10% HEPES 1M pH 7.2) for C. glabrata, so as to reduce the formation of septa and clusters.
(§4) 1 ml of inoculum was then added to 2 ml of antifungal solution prepared in an SC or RPMI medium depending on the species of fungus, so as to obtain a final concentration of yeast of 10^6 CFU/ml and the desired concentration of antifungal agent according to table 1.
(§5) After homogenisation, the cultures were placed at 30° C. at 200 rpm, with the exception of cultures of C. glabrata, which were placed at 35° C. at 200 rpm, and incubated for a period of 6.5 h or 24 h.
(§6) After incubation, 100 μl of the culture of fungi obtained above were transferred in triplicate to 96-well plates, and 2.5 μl of Calcofluor White (CFW) were added to each well so as to mark the chitin of the cell walls of the yeasts.
(§7) A step of acquiring images by automated fluorescence microscopy (ScanR screening station, Olympus), using a 40× lens and a CFW filter, made it possible to obtain 30 images per well so as to capture enough cells to provide statistically significant data. These images were analysed by software (ScanR analysis software, Olympus). Firstly, the background noise was processed so as to improve the contrast between the fluorescence of the yeasts and background noise. A pixel threshold was then defined. Segmentation of the fluorescent elements present in each of the acquired images was then performed using an algorithm predefined in the software, making it possible to determine the limit of each element on the basis of the fluorescence intensity of said element. A size parameter was then applied to select the yeasts and eliminate the aggregates and the fluorescent debris.
(§8) Each element then corresponding to a yeast, it was thus possible, on the basis of these elements predefined beforehand, to define the fluorescence intensity for each of the yeasts, this intensity being directly correlated with the chitin content of their wall.
(§9) On the basis of said defined elements, it was also possible to automatically count the yeasts,
The strain SC5314 of C. albicans was cultivated as described in paragraph I of the Examples section so as to obtain an inoculum at 3×10^6 CFU/ml in 15 ml of SC medium.
2 ml of fluconazole solution prepared in the SC medium were then added to 1 ml of this inoculum so as to obtain a final concentration of yeast of 10^6 CFU/ml and of 16 μg/ml in fluconazole.
The inoculum was treated in the same way so as to obtain cultures of 10^6 CFU/ml and the following concentrations of fluconazole: 0.015 μg/ml, 0.031 μg/ml, 0.062 μg/ml, 0.125 μg/ml, 0.25 μg/ml, 0.5 μg/ml, 1 μg/ml, 2 μg/ml, 4 μg/ml, 8 μg/ml, 16 μg/ml.
After incubation for 6.5 h at 30° C. with stirring at 200 rpm, 100 μl of each culture were removed and transferred to 96-well plates. This procedure was performed in triplicate, and 2.5 μl of CFW were then added to each well.
The chitin level in the cell wall of the yeasts was then measured by […] analysis (HCA) microscopy, as described in paragraph II of the Examples section, in triplicate for each condition of concentration of fluconazole and without fluconazole.

[2] = test system: strain Tg5 of C. glabrata; experiment: Etest method (MIC); format: cell-based, Candida glabrata; details: for MIC: Nakaseomyces glabratus, read-out: MIC (Etest method)
Description: The Etest® method is a commercial test for determining the sensitivity of a strain, most frequently used routinely in clinical mycology laboratories.
The Etest® tests were performed according to the manufacturer's instructions. After distributing a standardised Mac Farland 0.5 inoculum (equivalent of […]) over plates of RPMI medium, said plates were incubated for 24 h at 35° C., with the exception of C. glabrata in which case the incubation was extended to 48 h so as to be able to determine the minimum inhibitory concentration (MIC).
The results of the MICs obtained were interpreted in accordance with the tables of the CLSI (Clinical and Laboratory Standards Institute) and/or of EUCAST (European Committee on Antimicrobial Susceptibility Testing) (Arendrup M C, Cuenca-Estrella M, Lass-Flörl C, Hope W W (2014) Breakpoints for antifungal agents: an update from EUCAST focussing on echinocandins against Candida spp and triazoles against Aspergillus spp. Drug Resist Updat 16(6):81-95. doi:10.1016/j.drup.2014.01.001) (cf. Table 2 taken from Maubon D, Garnaud C, Calandra T, et al. (2014) Resistance of Candida spp. to antifungal drugs in the ICU: where are we now? Intensive Care Med. doi: 10.1007/s00134-014-3404-7) which list the clinical thresholds (CBPs) for the most common species of yeast of the genus Candida as a function of different antifungal agents, or according to the table of epidemiological thresholds (ECVs).

[3] = test system: strain ATCC®6258 of C. krusei; experiment: Sensitivity test by HCA microscopy (chitin level, Calcofluor White; cell count); format: cell-based, Candida krusei
Description: as §1, §2, §3, §4, §5, §6, §7, §8, §9
The strain ATCC®6258 of C. krusei was cultivated as described in paragraph I of the Examples section so as to obtain an inoculum at 3×10^6 CFU/ml in 15 ml of SC medium.
2 ml of fluconazole solution prepared in the SC medium were then added to 1 ml of this inoculum so as to obtain a final concentration of yeast of 10^6 CFU/ml and of 128 μg/ml in fluconazole. […]
The chitin level in the cell wall of the yeasts was then measured by […] analysis (HCA) microscopy, as described in paragraph II of the Examples section, in triplicate for each condition of concentration of fluconazole and without fluconazole. […]

[4] = RPMI medium plates, 35° C., incubation extended to 48 h for C. glabrata

| Compound | phenotype of the strain with respect to the antifungal agent (HCA) [1] | decrease of the number of cells [1] | increase of the chitin level in the wall of the cells [1] | MIC [2, 4] [µg/mL] | phenotype by Etest MIC, interpretation by the EUCAST and/or CLSI tables [2, 4] | phenotype of the strain with respect to the antifungal agent (HCA) ([3]; 6.5 h at 30° C., SC medium) | increase in the chitin level in the wall of the cells ([3]; vs cells in the absence of antifungal agent, 6.5 h at 30° C., SC medium, concentration gradient of Table 1) | MIC ([2]; 48 h) [µg/mL] | phenotype of the strain with respect to the antifungal agent (HCA) ([3]; 24 h at 30° C., RPMI medium) | decrease of the number of cells ([3]; vs cells in the absence of antifungal agent, 24 h at 30° C., RPMI medium) | increase of the chitin level in the wall of the cells ([3]; vs cells in the absence of antifungal agent, 24 h at 30° C., RPMI medium, concentration gradient of Table 1) |
| --- | --- | --- | --- | --- | --- | --- | --- | --- | --- | --- | --- |
| OC(Cn1cncn1)(Cn1cncn1)c1ccc(F)cc1F [fluconazole] | sensitive (an increase in the chitin level greater than or equal to 20% is observed compared to the chitin level of a population of cells of said fungus in the absence of antifungal agent, as well as a decrease in the number of cells of at least 0.3 log) | at least 0.3 log | greater than or equal to 20% | > 256 | resistant | resistant (an increase in the chitin level having a value less than 10% or a decrease in the chitin level of less than 20% or an unchanged chitin level) | less than 10% | – | – | – | – |
| C[C@@H](c1ncncc1F)[C@](O)(Cn1cncn1)c1ccc(F)cc1F [voriconazole] | sensitive (an increase in the chitin level greater than or equal to 20% is observed compared to the chitin level of a population of cells of said fungus in the absence of antifungal agent, as well as a decrease in the number of cells of at least 0.3 log) | at least 0.3 log | greater than or equal to 20% | – | resistant | – | – | 8 (≈ 22.9 µM) | intermediate (an increase in the chitin level having a value of from 10% to a value less than 20%) | less than 0.3 log | greater than or equal to 20% |
